Consider five molecules from patent US20230416202A1, “Small Molecule Compounds and Compositions” (Telo Therapeutics, Inc., priority 2020, published 2023).

The test system of data set [1] is Mutant TERT. As to the kind of experiment: HepG2 hTERT mRNA assay (qPCR). Format: cell-based, human. The following applies: Homo sapiens; HepG2 cells (mutated TERT), 48 hours, TERT mRNA via qPCR. How it is done:
(§1) HepG2 cells (hepatocyte carcinoma (HCC) cells; with mutated TERT) or HEK293T cells (with wild type (wt) TERT) were seeded at 4,000 cells/well in 96-well plates. The following day, test compounds were added to cells for at concentrations of 25 uM, 12.5 uM, 6.25 uM, 3.125 uM, 1.563 uM, 0.781 uM, 0.391 uM, 0.195 uM, 0.098 uM or vehicle control (0.1% DMSO). Each condition was tested in three replicate wells. 48 hours post drug addition, the cells were harvested for RNA using the 96-Magmax RNA Isolation kit (Cat. No. AM1830). RNA was converted to cDNA using the Superscript III First strand cDNA synthesis kit (Cat. No. 18080051). RNA and cDNA concentration and quality were determined using the NanoQuant nucleic acid quantification method. 500 ng cDNA from each sample was used to detect TERT mRNA via qPCR. GUSB was also measured as an internal control and fold change to vehicle control was determined using the delta CT method.
Background: In qPCR the cycle at which signal appears reflects the starting amount.

Data set [2] has as its system wt TERT. In words: HEK293T hTERT mRNA assay (qPCR). Type of data set: cell-based, human. The following applies: for IC50: Homo sapiens. As to the method:
as §1

For data set [3], the system named is HepG2 cells. In words: HepG2 cytostatic. Format: cell-based, human. The following applies: Homo sapiens.
Data set [4] has as its system HEK293 cells. As to the kind of experiment: HEK293 cytostatic. Type of data set: cell-based, human. The conditions noted are these: Homo sapiens, HEK293, HEK293 cells; read-out: wt Tert IC50 uM HEK293 cytostatic.
Data set [5] deals with GBM39 orthotopic xenograft. In words: GBM39 orthotopic xenograft, tumor BLI. Type of data set: in vivo, mice. The conditions noted are these: for tumor BLI change: 5 days. As to the method:
(§2) In this study, Compound 101 was dosed twice daily (BID) via oral gavage to mice with GBM39 orthotopic xenograft (GBM39 cells). Tumor size was measured via Bioluminescence imaging (BLI). BLI readings were taken on treatment day 1 and day 5. Tumors were also harvested for downstream RNA analysis.
(§3) For each dose group (N=6), the following steps were performed. Briefly, athymic nu/nu mice were injected intracranially with patient-derived Glioblastoma cells. Animals began treatment once tumor BLI levels reach the range of 1×10^8-5×10^8. A dosing solution of Compound 101 (50 mg/kd, 100 mg/kd, or 200 mg/kg) or vehicle were administered by oral gavage (P.O., 50-100 uL volume) for 5 days. The dosing solutions were prepared similar to the process in Example 4. Dosing was twice daily on days 1-4. On day 5 the mice received a single dose, prior to harvest. Three hours after the last dose, mice were sacrificed and their brains were harvested and processed for analysis. […] TERT expression was also found to be reduced in all three dose groups (FIG. 3).
In a second study with Compound 101 in the GBM mice model, the 200 mg/kg dosing group was changed to a 100 mg/kg once daily dosing (QD). The baseline BLI readings were taken two days prior to 1st treatment.

Data set [6] has as its system TERT. In words: TERT expression in GBM39 orthotopic xenograft tumors. Format: in vivo, mice. The conditions noted are these: 50, 100 or 200 mg/kg BID, oral gavage, 5 days, FIG. 3. How it is done: as §2, §3
Data set [7] deals with HepG2 subcutaneous tumor xenograft. In words: HepG2 subcutaneous tumor xenograft, tumor volume. Type of data set: in vivo, mice. The conditions noted are these: for Mean Tumor Volume: p.o, BID for 5 days. How it is done:
The pharmacodynamic (PD) profiling of Compound 101 was determined in Athymic nude mice bearing subcutaneous tumor xenograft model.
(§4) HepG2 (Hepatocellular carcinoma cell line containing the C228T TERTp mutation) cells were implanted into the flanks of Athymic Nude-Foxn1nu mice. Once tumors reached 250-300 mm3 in size as measured by caliper, treatment of Compound 101 was initiated. Compound 101 was administered orally (P.O.) for 5 days BID at either 25 mg/kg, 50 mg/kg, or vehicle control (N=4 per group). Body weight and tumor size were measured on days 1, 3, and 5. Two hours after final dose administration, mice were sacrificed, and tumors extracted for RNA isolation and TERT mRNA expression analysis via RT-qPCR. Both TERT and GUSB were measured using SYBR green primers and relative TERT levels were analyzed using the delta delta CT method.

For data set [8], the system named is TERT. As to the kind of experiment: TERT mRNA expression (RT-qPCR) in HepG2 xenograft tumors. The following applies: for TERT Expression (RT-qPCR) Mean Fold: p.o, BID for 5 days. Format: in vivo, mice. How it is done: as §4
Data set [9] is described as follows: Body weight in HepG2 xenograft mice. Format: in vivo. The following applies: p.o, BID for 5 days. As to the method: as §4
Data set [10] has as its system GBM39 cells orthotopic xenograft. As to the kind of experiment: GBM orthotopic xenograft survival study. Format: in vivo, mice. The following applies: oral gavage, 14 days of dosing. How it is done: GBM39 cells, a human PDX model of GBM, were selected for this study. GBM39 cells were stably transduced (MOI=3) with Firefly Luciferase Lentifect Purified Lentiviral Particles (Genecopoiea, #LPP-FLUC-Lv105) and were verified to be expressing luciferase stably and at similar levels 48 h pre-xenograft. A total of 1-4×10E4 luciferase-expressing PDX cells in 4 uL volume were injected into the right frontal cortex of athymic nu/nu mice (6-7-wk.-old, female). Animals were randomized into treatment groups and dosing initiated once tumors reach an average BLI of 1×10^8.
(§5) For this study, treatment began on day 7 post tumor cell implant and ceased on day 20 for a total of 14 days of dosing. Compound 101 was formulated with Solutol, DMSO and water and administered by oral gavage twice daily (BID). The dosage groups were vehicle control, 50 mg/kg BID, 25 mg/kg BID, and 10 mg/kg BID. […] Tumor size was monitored following injection of luciferin (150 mg/kg i.p.) 1-2 times weekly by bioluminescence imaging (Xenogen IVIS Spectrum Imaging System). Animals were weighed three times per week, and daily after initial weight loss is observed.

Data set [11] is described as follows: Body weight in GBM orthotopic xenograft survival study. Format: in vivo, mice. The following applies: highest dosage group (50 mg/kg BID), first 3 dosing days. As to the method:
as §5

Setting [12] is: HEK-293T, wild type TERT, read-out: wt TERT IC50.
[13] abbreviates: HEK293 cells (wt TERT), 48 hours, class symbols, read-out: wt TERT IC50 uM HEK293.
Where [14] appears, read: oral, 25 mg/kg and 50 mg/kg BID, 5 days (both dose levels).

Where two headings read alike, the source gives them in different places.

Turning to `COc1ccc([C@H]2C[C@H](CC(=O)O)CN(Cc3ccc(C(F)(F)F)cc3)C2)cc1` (racemic) [Compound 105, 2-((anti)-5-(4-methoxyphenyl)-1-(4-(trifluoromethyl)benzyl)piperidin-3-yl)acetic acid], the IC50 in data set [1] was 0.5 to 5 µM; in [2] (setting [12]), more than 25 µM; in data set [2] (setting [13]), more than 25 µM; in data set [3] it was 5 to 25 µM; in data set [4], 5 to 25 µM.

As to `N#Cc1ccc(CN2C[C@H](CC(=O)O)C[C@@H](c3ccc(C(F)(F)F)cc3)C2)cc1` [Compound 115, 2-((3S,5S)-1-(4-cyanobenzyl)-5-(4-(trifluoromethyl)phenyl)piperidin-3-yl)acetic acid], the IC50 is 0.5 to 5 µM in data set [1]; more than 25 µM in data set [2] (setting [12]); more than 25 µM in data set [2] (setting [13]); 0.5 to 5 µM in [3]; 5 to 25 µM in data set [4].

`COc1cc([C@H]2C[C@H](CC(=O)O)CN(Cc3ccc(C(F)(F)F)cc3)C2)cc(C(F)(F)F)c1` (racemic) [Compound 106, rac-2-((anti)-5-(3-methoxy-5-(trifluoromethyl)phenyl)-1-(4-(trifluoromethyl)benzyl)piperidin-3-yl)acetic acid]: the IC50 in [1] is 0.5 to 5 µM; in [2] (setting [12]), more than 25 µM; in [2] (setting [13]) it was more than 25 µM; in [3], 0.5 to 5 µM; in data set [4], 5 to 25 µM.

`O=C(O)C[C@@H]1C[C@@H](c2ccc(C(F)(F)F)cc2)CN(Cc2ccc(C(F)(F)F)cc2)C1` [Compound 101, 2-((3S,5S)-1-(4-(trifluoromethyl)benzyl)-5-(4-(trifluoromethyl)phenyl)piperidin-3-yl)acetic acid]: the IC50 in data set [1] is less than 0.5 µM. Besides, the “wt TERT IC50 uM HEK293” value in data set [2] (HEK293 cells (wt TERT), 48 hours, class symbols) was ““++”-IA”. The “tumor BLI change” value in data set [5] (50, 100 or 200 mg/kg BID, oral gavage, FIG. 2) is given as “significant tumor reduction”; in [5] (second study: 50 mg/kg BID, 100 mg/kg BID or 100 mg/kg QD, FIG. 4) it was “significant tumor reduction”. In addition, the tumor size entry in [5] (second study, 100 mg/kg once daily dosing (QD)) is listed as “sufficient to reduce tumor size”. In data set [6], the “TERT expression in tumor” value is reported as “reduced”. The “Mean Tumor Volume” value is given as 252.22 mm3 in data set [7] (25 mg/kg, Day 1); 230.02 mm3 in [7] (25 mg/kg, Day 3); 197.97 mm3 in data set [7] (25 mg/kg, Day 5); 251.37 mm3 in [7] (50 mg/kg, Day 1); 212.58 mm3 in data set [7] (50 mg/kg, Day 3); 168.34 mm3 in data set [7] (50 mg/kg, Day 5). Besides, the tumor volume change entry in data set [7] (setting [14]) was “tumor regression”. The results for the “TERT Expression (RT-qPCR) Mean Fold” value in data set [8] (25 mg/kg) and in data set [8] (50 mg/kg) were 0.21 Fold and 0.19 Fold, respectively. For the same molecule, in data set [8] (setting [14]), the “TERT mRNA in tumor” value is “TERT mRNA reduction”. The “% Mean body weight change” value in data set [9] (25 mg/kg, DAY 1) is listed as 0%; in data set [9] (25 mg/kg, DAY 3), −4.36%; in data set [9] (25 mg/kg, DAY 5) it was −3.65%; in [9] (50 mg/kg, DAY 1), 0%; in [9] (50 mg/kg, DAY 3) it was −11.09%; in data set [9] (50 mg/kg, DAY 5), −10.68%. The “Median Survival” value was 50 in [10] (20 mg/kg/day, bid (n = 10)); 62.5 in data set [10] (50 mg/kg/day, bid (n = 10)); “Undefined” in [10] (100 mg/kg/day, bid × 3 days, then 50 mg/kg/day, qd (n = 9)). Besides, the body weight result in [11] is “mice losing weight”.

Consider `N#Cc1ccc([C@@H]2C[C@@H](CC(=O)O)CN(Cc3ccc(C(F)(F)F)cc3)C2)cc1` (racemic) [Compound 107, 2-((anti)-5-(4-cyanophenyl)-1-(4-(trifluoromethyl)benzyl)piperidin-3-yl)acetic acid], for which the IC50 in data set [1] is 5 to 25 µM; in data set [2] (setting [12]), more than 25 µM; in data set [2] (setting [13]) it was more than 25 µM; in data set [3], 5 to 25 µM; in [4], more than 25 µM.

What is called IC50 is the point on the concentration scale where inhibition reaches its midpoint.
